Results on two molecules are retold here after patent US10017817B2, “Skin activation by acceleration of PDGF-BB activity” (Shiseido Company, Ltd., priority 2010, dated 2018).

The test system of assay [1] is PDGF-BB expression in human vascular endothelial cells HUVEC. As to the kind of experiment: Evaluation of PDGF-B production accelerating action in vascular endothelial cells (ELISA and quantitative RT-PCR). The format is cell-based. The settings on record: retinoic acid at 1 μm or 10 μm vs DMSO solvent control, cultured 2 days, PDGF-BB in culture supernatant by ELISA and PDGF-B mRNA by quantitative PCR (FIG. 8). As to the method: Evaluation of PDGF-B Production Accelerating Action in
Vascular Endothelial Cells
Human vascular endothelial cells HUVEC were sub-cultured in EGM-2 medium (Sanko Junyaku Co., Ltd.), and the fourth generation cells were suspended in Humedia-EG2 medium not containing VEGF-A (Kurabo Industries Ltd.), followed by disseminating in a collage-coated 24-well multiplate (Asahi Glass Co., Ltd.) at a ratio of 20,000 cells and culturing for 3 to 5 days at 37° C. until the cells reached confluence in the presence of 5% CO2. After replacing the medium with Humedia-EG2 medium (Kurabo Industries Ltd.) containing retinoic acid at 1 μm or 10 μm or DMSO used as a solvent control, culturing was further continued for 2 days. Following completion of culturing, the culture supernatant was recovered and PDGF-BB was quantified in accordance with the protocol provided using Human PDGF-BB Quantikine ELISA Kit (R&D Systems Inc.). […] One-step quantitative RT-PCR was then carried out on the PDGF-B gene for each sample using an equal volume of mRNA as template, using the primer pair of SEQ ID NO: 9 and SEQ ID NO: 10, and using QuantiFast SYBR Green RT-PCR Kit (Qiagen Inc.) for the reaction reagent and LightCycler (Roche Diagnostics GmbH) for the reaction apparatus. […]
A general note: In an ELISA, binding on a coated surface is turned into a signal by an enzyme label.

Assay [2] deals with adipose-derived mesenchymal stem cells MSC. As to the kind of experiment: Evaluation of migration ability of mesenchymal stem cells (cell insert assay). The format is cell-based. The settings on record: 5 ng/ml to 30 ng/ml in StemPro serum-free MSC medium; overnight; in comparison with PDGF-AA and PDGF-AB (FIG. 2). As to the method:
Evaluation of Migration Ability
Commercially available adipose-derived mesenchymal stem cells MSC were purchased and sub-cultured in MesenPro mesenchymal stem cell medium (Invitrogen Corp.). Then, PDGF-AA, PDGF-AB or PDGF-BB (R&D Systems Inc.) was added to StemPro serum-free MSC medium (Invitrogen Corp.) in 24-well culture plates at a concentration of 5 ng/ml to 30 ng/ml, and fibronectin-coated cell inserts (BD Bioscience Inc.) were placed thereon followed by seeding 50,000 MSC suspended in StemPro medium. After culturing overnight in a CO2 incubator, the culture fluid was removed by aspiration. Thereafter, the cell inserts were immersed for 10 minutes in Hoechist 33258-PBS solution, and the nuclei of cells adhered to the cell insert were stained. After washing with PBS, the backs of the cell inserts were observed under a fluorescence microscope and images were captured. Five random images of each cell insert were captured followed by counting the number of cells that transferred to the cell insert.

`CC1=C(/C=C/C(C)=C/C=C/C(C)=C/C(=O)O)C(C)(C)CCC1` [tretinoin, all-trans retinoic acid]: the “acceleration of expression of PDGF-BB” value in assay [1] was “concentration-dependent activity”; in assay [1] (listed as retinoic acid), “accelerates expression of PDGF-BB”.

B1: PDGF-BB: platelet-derived growth factor-BB protein (R&D Systems Inc.), homodimer of the PDGF B chain (protein, UniProt P01127 82-190, looked up)
Platelet-derived growth …: SLGSLTIAEPAMIAECKTRTEVFEISRRLIDRTNANFLVWPPCVEVQRCSGCCNNRNVQCRPTQVQLRPVQVRKIEIVRKKPIFKKATVTLEDHLACKCETVAAARPVT
modifications: homodimer
notes: platelet-derived growth factor-BB protein (R&D Systems Inc.), homodimer of the PDGF B chain
For the molecule B1, the “migration ability of mesenchymal stem cells” value in assay [2] is given as “significantly enhance the migration ability of stem cells”.
